Test results reported in patent publication US11214803B2, “Modulators of YAP1 expression” (Ionis Pharmaceuticals, Inc., priority 2019, dated 2022).

Assays:
[1] = test system: Yap1 mRNA; assay: Yap1 mRNA in SCC-4 cells, RNA analysis (Example 39); type: cell-based, human; conditions: free uptake, approximately 48 hours
Experimental: Modified oligonucleotides described in the studies above were tested at various doses in tongue squamous cell carcinoma cell line SCC 4. A control oligonucleotide 792169, described herein above, was also tested.
(§1) Cultured SCC-4 cells at a density of 5000 cells per well were treated using free uptake with modified oligonucleotides diluted to concentrations described in the tables below. After approximately 48 hours, Yap1 mRNA levels were measured as previously described using the Human Yap1 primer-probe set RTS4814. Yap1 mRNA levels were normalized to actin-beta content, as measured by primer probe set RTS5002. Results are presented in the tables below as percent control of the amount of Yap1 mRNA relative to untreated control cells (% UTC).

[2] = test system: SNU-1076 cells; assay: Cell proliferation assay in SNU-1076 cells, CellTiter-Glo (Example 45); type: cell-based, human; conditions: free uptake, approximately 144 hours
Experimental: Modified oligonucleotides described in the studies above were tested at various doses in upper aerodigestive tract/laryngeal squamous cell carcinoma line SNU-1076. A control oligonucleotide 792169, described herein above, was also tested.
(§2) Cultured SNU-1076 cells at a density of 1000 cells/well were treated using free uptake with modified oligonucleotides diluted to concentrations described in the tables below. After approximately 144 hours, cell proliferation was measured using the luminescent cell viability CellTiter-Glo® 2.0 Assay (Promega). Results are presented in the tables below as percent control of the amount of luminescence in samples treated with modified oligonucleotides relative to untreated control cells (% UTC).

[3] = test system: Yap1 mRNA; assay: Yap1 mRNA levels in CAL33 xenograft tumors (Example 29); type: in vivo, human; conditions: CAL33 xenografts, 50 mg/kg twice weekly for two weeks, relative to PBS treated animals
Experimental: (§3) A xenograft tumor model was used to evaluate activity of modified oligonucleotides targeted to human Yap1. One million CAL33 cells in 30% matrigel were implanted subcutaneously into the flanks of female CrTac:NCr-Foxnlnu (Taconic) mice. When tumors reached an average volume of 100 mm^3, approximately two weeks post-implantation, groups of eight mice were administered at 50 mg/kg twice weekly with modified oligonucleotides for two weeks. ION 792169 was administered as a control.
Tumor samples were collected for measurement of Yap1 mRNA levels by RT-qPCR. Yap1 mRNA levels were measured as previously described using the Human Yap1 primer-probe set RTS4814. Yap1 mRNA levels were normalized to actin-beta content, as measured by primer probe set RTS5002. Results are presented in the tables below as percent control of the amount of Yap1 mRNA relative to PBS treated animals (% control).

[4] = test system: Yap1 mRNA; assay: Yap1 mRNA in SNU-1066 cells, RNA analysis (Example 44); type: cell-based, human; conditions: free uptake, approximately 48 hours
Experimental: Modified oligonucleotides described in the studies above were tested at various doses in laryngeal squamous cell carcinoma line SNU-1066. A control oligonucleotide 792169, described herein above, was also tested.
as §1, with “SNU-1066” for “SCC-4”

[5] = test system: Yap1 mRNA; assay: Yap1 mRNA in CAL27 cells, RNA analysis (Example 37); type: cell-based, human; conditions: free uptake, approximately 48 hours
Experimental: Modified oligonucleotides described in the studies above were tested at various doses in tongue squamous cell carcinoma line CAL27. A control oligonucleotide 792169, described herein above, was also tested.
as §1, with “CAL27” for “SCC-4”

[6] = test system: CAL33 xenograft tumor; assay: Tumor volume and tumor weight in CAL33 xenograft tumor model (Example 29); type: in vivo, human; conditions: 50 mg/kg twice weekly for two weeks; for Average Tumor Volume: CAL33 xenografts
Experimental: as §3
Tumor volume was measured at the indicated days in the table below. Tumor weight was determined at end of study. Mice were sacrificed when tumors from PBS-treated mice reached 2,000 mm3.

[7] = Tolerability in CD-1 mice, plasma chemistry markers (Example 19); type: in vivo; conditions: male CD-1 mice, 50 mg/kg s.c. twice a week for four weeks (8 treatments), day 26
Experimental: CD-1 mice were treated with modified oligonucleotides selected from studies described above and evaluated for changes in the levels of various plasma chemistry markers.
Groups of four male CD-1 mice at 4-6 weeks of age (obtained from Charles River) were injected subcutaneously twice a week for four weeks (for a total of 8 treatments) with 50 mg/kg of modified oligonucleotides. One group of male CD-1 mice was injected with PBS. Mice were euthanized on day 26 post start of treatment (24 hrs following the final administration).

[8] = test system: NCI H292 cells; assay: Cell proliferation assay in NCI H292 cells, CellTiter-Glo (Example 32); type: cell-based, human; conditions: free uptake, approximately 144 hours
Experimental: Modified oligonucleotides described in the studies above were tested at various doses in mucoepidermoid pulmonary carcinoma cell line […]. A control oligonucleotide 792169 was also tested.
as §2, with “NCI H292” for “SNU-1076”

## 1198440 (AAGTGTATGTCAGAAG; cEt, 2'-MOE, 5-methylcytosine, phosphorothioate modifications, further chemistry not given here) [compound 1198440]
[1]; 0.04 μM
  human Yap1 mRNA expression: 63 % UTC
[1]; 0.2 μM
  human Yap1 mRNA expression: 27 % UTC
[1]; 1 μM
  human Yap1 mRNA expression: 11 % UTC
[1]; 5 μM
  human Yap1 mRNA expression: 5 % UTC
[2]; 0.04 μM
  Antiproliferative effect (cell proliferation, luminescence): 99 % UTC
[2]; 0.2 μM
  Antiproliferative effect (cell proliferation, luminescence): 87 % UTC
[2]; 1 μM
  Antiproliferative effect (cell proliferation, luminescence): 81 % UTC
[2]; 5 μM
  Antiproliferative effect (cell proliferation, luminescence): 81 % UTC
[3]
  Yap1 mRNA levels in tumors, % control: 12 % control
[4]; 0.04 μM
  human Yap1 mRNA expression: 70 % UTC
[4]; 0.2 μM
  human Yap1 mRNA expression: 28 % UTC
[4]; 1 μM
  human Yap1 mRNA expression: 7 % UTC
[4]; 5 μM
  human Yap1 mRNA expression: 2 % UTC
[5]; 0.08 μM
  human Yap1 mRNA expression: 23 % UTC
[5]; 0.4 μM
  human Yap1 mRNA expression: 6 % UTC
[5]; 2 μM
  human Yap1 mRNA expression: 4 % UTC
[5]; 10 μM
  human Yap1 mRNA expression: 4 % UTC
[6]; CAL33 xenograft mice, end of study
  Average Tumor weight: 0.36 g
[6]; day 10 post-implantation
  Average Tumor Volume: 115 mm^3
[6]; day 13 post-implantation
  Average Tumor Volume: 279 mm^3
[6]; day 17 post-implantation
  Average Tumor Volume: 376 mm^3
[6]; day 21 post-implantation
  Average Tumor Volume: 574 mm^3
[6]; day 24 post-implantation
  Average Tumor Volume: 651 mm^3
[6]; day 27 post-implantation
  Average Tumor Volume: 818 mm^3
[6]; day 31 post-implantation
  Average Tumor Volume: 888 mm^3
[6]; day 34 post-implantation
  Average Tumor Volume: 857 mm^3
[6]; day 38 post-implantation
  Average Tumor Volume: 770 mm^3
[6]; day 40 post-implantation
  Average Tumor Volume: 746 mm^3
[6]; day 44 post-implantation
  Average Tumor Volume: 834 mm^3
[7]
  ALT: 121 U/L
  AST: 140 U/L
  BUN: 19 mg/dL
  TBIL: 0.22 mg/dL
[8]; 0.04 μM
  Antiproliferative effect (cell proliferation, luminescence): 100 % UTC
[8]; 0.2 μM
  Antiproliferative effect (cell proliferation, luminescence): 83 % UTC
[8]; 1 μM
  Antiproliferative effect (cell proliferation, luminescence): 30 % UTC
[8]; 5 μM
  Antiproliferative effect (cell proliferation, luminescence): 15 % UTC
